{"source": "paper PMC9329436", "about": "“Optimization of the 4-anilinoquin(az)oline scaffold as epidermal growth factor receptor (EGFR) inhibitors for chordoma utilizing a toxicology profiling assay platform” (Scientific Reports, 2022)", "key": {"U-CH2 chordoma cell line": {"tested_on": "U-CH2 chordoma cell line", "assay": "Cell viability assay (alamarBlue, 72 h), U-CH2", "assay_type": "cell-based, human", "conditions": "n = 4, 72 h", "summary_of_the_method": "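Cells grown in 4:1 IMDM:RPMI with 10% FBS on gel-coated flasks, dosed in quadruplicate 24 h after seeding in 384-well plates.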"}, "[1]": {"tested_on": "CH22 patient-derived chordoma cell line", "assay": "Cell viability assay (alamarBlue, 72 h), CH22", "assay_type": "cell-based, human", "conditions": "n = 4, 72 h", "summary_of_the_method": "(§1)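 Patient-derived chordoma lines and WS1 fibroblasts seeded in 384-well plates, dosed in quadruplicate 24 h after plating.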"}, "[2]": {"target": "320 wild-type protein kinases (Homo sapiens, UniProt P08922)", "assay_type": "biochemical", "conditions": "kinase ROS, singlicate", "excerpt": "(§2) Table S4. Profiling of two compounds at two concentrations against 320 wild-type protein kinases; singlicate measurement; Residual activities (% of control)."}, "[3]": {"target": "320 wild-type protein kinases (Homo sapiens, UniProt P04629)", "sequence (P04629 33-796)": "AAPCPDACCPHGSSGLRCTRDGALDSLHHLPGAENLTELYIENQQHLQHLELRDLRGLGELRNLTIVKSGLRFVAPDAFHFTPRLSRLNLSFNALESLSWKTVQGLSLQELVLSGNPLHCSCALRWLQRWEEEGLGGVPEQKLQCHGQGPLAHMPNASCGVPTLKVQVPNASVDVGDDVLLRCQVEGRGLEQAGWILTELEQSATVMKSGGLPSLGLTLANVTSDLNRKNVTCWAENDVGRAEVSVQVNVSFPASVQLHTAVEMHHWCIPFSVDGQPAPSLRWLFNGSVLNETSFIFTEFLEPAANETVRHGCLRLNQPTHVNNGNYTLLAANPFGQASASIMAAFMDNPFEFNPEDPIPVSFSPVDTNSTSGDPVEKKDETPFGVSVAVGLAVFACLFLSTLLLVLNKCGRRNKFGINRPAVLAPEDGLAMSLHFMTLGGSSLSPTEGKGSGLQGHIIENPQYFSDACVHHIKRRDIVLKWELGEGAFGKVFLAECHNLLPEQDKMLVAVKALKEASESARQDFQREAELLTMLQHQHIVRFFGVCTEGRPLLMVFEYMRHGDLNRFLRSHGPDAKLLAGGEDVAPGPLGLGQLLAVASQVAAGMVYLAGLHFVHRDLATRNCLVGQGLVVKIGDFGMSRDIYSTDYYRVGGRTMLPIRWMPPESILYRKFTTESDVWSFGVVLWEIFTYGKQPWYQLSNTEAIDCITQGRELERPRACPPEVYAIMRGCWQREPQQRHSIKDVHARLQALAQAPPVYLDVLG", "assay_type": "biochemical", "conditions": "kinase TRK-A, singlicate", "excerpt": "as §2"}, "[4]": {"target": "320 wild-type protein kinases (Homo sapiens, UniProt Q16288)", "sequence (Q16288 32-839)": "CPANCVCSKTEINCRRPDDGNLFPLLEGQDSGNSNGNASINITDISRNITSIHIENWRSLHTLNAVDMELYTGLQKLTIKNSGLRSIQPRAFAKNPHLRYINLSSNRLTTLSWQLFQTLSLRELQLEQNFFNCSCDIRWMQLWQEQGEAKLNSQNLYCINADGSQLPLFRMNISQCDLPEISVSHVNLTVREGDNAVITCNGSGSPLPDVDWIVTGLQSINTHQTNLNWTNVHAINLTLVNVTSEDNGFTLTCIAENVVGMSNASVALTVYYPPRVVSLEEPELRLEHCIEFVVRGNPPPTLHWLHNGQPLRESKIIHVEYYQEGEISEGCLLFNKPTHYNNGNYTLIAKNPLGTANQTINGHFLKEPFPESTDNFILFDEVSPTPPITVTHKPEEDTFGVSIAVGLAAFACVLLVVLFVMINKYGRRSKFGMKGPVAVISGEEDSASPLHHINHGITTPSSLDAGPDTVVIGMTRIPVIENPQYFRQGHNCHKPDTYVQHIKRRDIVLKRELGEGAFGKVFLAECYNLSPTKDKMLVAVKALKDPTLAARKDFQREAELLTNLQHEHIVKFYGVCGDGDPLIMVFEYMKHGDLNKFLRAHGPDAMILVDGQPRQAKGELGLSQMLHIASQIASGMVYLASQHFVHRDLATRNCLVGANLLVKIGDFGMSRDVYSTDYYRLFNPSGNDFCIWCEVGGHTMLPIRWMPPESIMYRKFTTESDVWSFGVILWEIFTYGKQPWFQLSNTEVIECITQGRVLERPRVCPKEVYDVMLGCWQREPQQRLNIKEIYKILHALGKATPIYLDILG", "assay_type": "biochemical", "conditions": "kinase TRK-C, singlicate", "excerpt": "as §2"}, "[5]": {"target": "320 wild-type protein kinases (Homo sapiens, UniProt O00311)", "sequence (O00311 whole entry)": "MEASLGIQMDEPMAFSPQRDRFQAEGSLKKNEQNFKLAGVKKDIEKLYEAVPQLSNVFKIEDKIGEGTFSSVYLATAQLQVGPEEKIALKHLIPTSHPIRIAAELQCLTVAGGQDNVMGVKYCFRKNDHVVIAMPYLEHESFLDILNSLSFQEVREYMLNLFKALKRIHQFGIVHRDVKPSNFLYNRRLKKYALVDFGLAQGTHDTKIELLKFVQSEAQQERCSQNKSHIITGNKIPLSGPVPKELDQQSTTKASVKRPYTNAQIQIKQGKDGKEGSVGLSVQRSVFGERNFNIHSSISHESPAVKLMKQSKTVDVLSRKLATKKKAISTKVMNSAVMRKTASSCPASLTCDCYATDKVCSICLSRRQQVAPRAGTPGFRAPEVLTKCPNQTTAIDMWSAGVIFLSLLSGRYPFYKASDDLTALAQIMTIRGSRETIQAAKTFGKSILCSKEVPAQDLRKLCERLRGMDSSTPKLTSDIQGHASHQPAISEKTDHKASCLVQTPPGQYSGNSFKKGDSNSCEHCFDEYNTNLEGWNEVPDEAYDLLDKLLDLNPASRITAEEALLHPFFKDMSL", "assay_type": "biochemical", "conditions": "singlicate", "excerpt": "as §2"}, "[6]": {"target": "320 wild-type protein kinases (Homo sapiens, UniProt Q9H4B4)", "sequence (Q9H4B4 whole entry)": "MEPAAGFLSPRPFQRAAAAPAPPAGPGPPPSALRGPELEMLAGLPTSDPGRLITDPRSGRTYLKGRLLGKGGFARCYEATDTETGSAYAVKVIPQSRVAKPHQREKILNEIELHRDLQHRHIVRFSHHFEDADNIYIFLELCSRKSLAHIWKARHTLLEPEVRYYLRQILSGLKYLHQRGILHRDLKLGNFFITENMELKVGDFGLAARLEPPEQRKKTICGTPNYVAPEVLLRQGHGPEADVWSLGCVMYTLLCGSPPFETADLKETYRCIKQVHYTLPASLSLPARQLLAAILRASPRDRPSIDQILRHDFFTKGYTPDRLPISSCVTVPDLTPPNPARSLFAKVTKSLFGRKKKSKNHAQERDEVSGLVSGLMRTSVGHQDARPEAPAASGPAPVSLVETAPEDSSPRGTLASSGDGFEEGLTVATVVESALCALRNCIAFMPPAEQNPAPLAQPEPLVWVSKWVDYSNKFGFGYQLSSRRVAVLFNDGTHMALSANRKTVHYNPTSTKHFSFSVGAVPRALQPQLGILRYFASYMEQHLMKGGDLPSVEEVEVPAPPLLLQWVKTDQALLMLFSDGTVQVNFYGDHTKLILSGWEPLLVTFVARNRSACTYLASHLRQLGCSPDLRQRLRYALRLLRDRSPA", "assay_type": "biochemical", "conditions": "singlicate", "excerpt": "as §2"}, "[7]": {"target": "320 wild-type protein kinases (Homo sapiens, UniProt P06493)", "sequence (P06493 whole entry)": "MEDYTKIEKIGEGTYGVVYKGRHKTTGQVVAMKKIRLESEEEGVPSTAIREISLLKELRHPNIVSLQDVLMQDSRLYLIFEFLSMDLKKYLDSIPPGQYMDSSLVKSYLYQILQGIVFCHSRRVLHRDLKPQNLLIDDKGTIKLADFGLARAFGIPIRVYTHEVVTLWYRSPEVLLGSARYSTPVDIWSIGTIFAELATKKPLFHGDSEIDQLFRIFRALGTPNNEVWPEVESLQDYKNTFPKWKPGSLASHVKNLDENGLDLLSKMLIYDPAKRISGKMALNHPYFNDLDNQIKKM", "assay_type": "biochemical", "conditions": "singlicate", "excerpt": "as §2"}, "[8]": {"target": "T1, 320 wild-type protein kinases (Homo sapiens, UniProt P54762)", "T1 sequence (P54762 18-984)": "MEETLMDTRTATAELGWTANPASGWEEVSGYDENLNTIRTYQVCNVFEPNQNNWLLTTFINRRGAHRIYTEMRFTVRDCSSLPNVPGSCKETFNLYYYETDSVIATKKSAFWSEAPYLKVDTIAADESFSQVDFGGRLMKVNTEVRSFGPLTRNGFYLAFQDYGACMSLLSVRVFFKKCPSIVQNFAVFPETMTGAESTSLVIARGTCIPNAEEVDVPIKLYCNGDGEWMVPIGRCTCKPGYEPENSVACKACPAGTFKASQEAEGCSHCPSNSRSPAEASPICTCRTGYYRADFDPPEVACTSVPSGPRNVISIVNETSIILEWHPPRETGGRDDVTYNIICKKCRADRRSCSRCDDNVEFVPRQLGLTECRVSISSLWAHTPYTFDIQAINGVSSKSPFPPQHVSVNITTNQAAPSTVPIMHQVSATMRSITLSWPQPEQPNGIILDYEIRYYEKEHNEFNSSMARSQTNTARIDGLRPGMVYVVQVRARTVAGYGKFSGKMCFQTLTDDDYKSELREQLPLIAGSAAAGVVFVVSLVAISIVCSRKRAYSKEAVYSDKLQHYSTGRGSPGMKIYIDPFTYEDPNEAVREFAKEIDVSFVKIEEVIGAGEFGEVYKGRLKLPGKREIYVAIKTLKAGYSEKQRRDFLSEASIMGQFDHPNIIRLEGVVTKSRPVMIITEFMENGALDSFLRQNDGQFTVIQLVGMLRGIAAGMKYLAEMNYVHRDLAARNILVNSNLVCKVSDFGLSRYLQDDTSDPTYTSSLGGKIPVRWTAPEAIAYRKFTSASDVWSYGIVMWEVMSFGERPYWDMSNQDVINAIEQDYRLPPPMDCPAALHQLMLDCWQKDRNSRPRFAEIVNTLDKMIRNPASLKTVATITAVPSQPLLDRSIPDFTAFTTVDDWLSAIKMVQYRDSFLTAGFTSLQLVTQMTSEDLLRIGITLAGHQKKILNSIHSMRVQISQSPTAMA", "assay_type": "biochemical", "conditions": "singlicate", "excerpt": "as §2"}, "[9]": {"target": "T2, 320 wild-type protein kinases (Homo sapiens, UniProt P51956)", "T2 sequence (P51956 1-506)": "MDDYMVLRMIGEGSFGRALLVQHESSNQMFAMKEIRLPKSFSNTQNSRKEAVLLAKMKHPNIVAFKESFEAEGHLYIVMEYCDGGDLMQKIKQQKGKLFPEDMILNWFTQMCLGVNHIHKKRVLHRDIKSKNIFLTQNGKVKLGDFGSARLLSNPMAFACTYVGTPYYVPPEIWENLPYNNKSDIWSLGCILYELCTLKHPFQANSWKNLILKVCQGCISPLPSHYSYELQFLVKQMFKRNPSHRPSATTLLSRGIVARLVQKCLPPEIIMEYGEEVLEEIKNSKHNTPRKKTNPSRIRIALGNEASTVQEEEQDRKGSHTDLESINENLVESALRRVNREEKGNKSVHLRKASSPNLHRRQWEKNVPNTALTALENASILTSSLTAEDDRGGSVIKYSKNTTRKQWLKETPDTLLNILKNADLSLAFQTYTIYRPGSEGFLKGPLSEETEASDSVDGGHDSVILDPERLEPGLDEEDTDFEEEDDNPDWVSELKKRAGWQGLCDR", "assay_type": "biochemical", "conditions": "singlicate", "excerpt": "as §2"}, "[10]": {"tested_on": "U-CH12 patient-derived chordoma cell line", "assay": "Cell viability assay (alamarBlue, 72 h), U-CH12", "assay_type": "cell-based, human", "conditions": "n = 4, 72 h", "summary_of_the_method": "as §1"}}, "note": "Read-outs that look alike come from different tables or passages of the source.", "data": [{"smiles": "C#Cc1cc(Nc2ncnc3cc(I)ccc23)ccc1Cl", "note": "[Compound 41]", "values": [{"measurement": "IC50", "setting": "U-CH2 chordoma cell line", "result": 16, "unit": "µM"}, {"measurement": "IC50", "setting": "[1]", "result": 480, "unit": "nM"}, {"measurement": "Residual activity, ROS", "setting": "[2]; assay conc. 1.0E-06 M", "result": "88 % of control"}, {"measurement": "Residual activity, ROS", "setting": "[2]; assay conc. 1.0E-07 M", "result": "95 % of control"}, {"measurement": "Residual activity, TRK-A", "setting": "[3]; assay conc. 1.0E-06 M", "result": "107 % of control"}, {"measurement": "Residual activity, TRK-A", "setting": "[3]; assay conc. 1.0E-07 M", "result": "100 % of control"}, {"measurement": "Residual activity, TRK-C", "setting": "[4]; assay conc. 1.0E-06 M", "result": "105 % of control"}, {"measurement": "Residual activity, TRK-C", "setting": "[4]; assay conc. 1.0E-07 M", "result": "115 % of control"}, {"measurement": "Residual activity", "setting": "[5]; CDC7/DBF4, 1.0E-06 M", "result": "90 % of control"}, {"measurement": "Residual activity", "setting": "[5]; CDC7/DBF4, 1.0E-07 M", "result": "89 % of control"}, {"measurement": "Residual activity", "setting": "[6]; PLK3, 1.0E-06 M", "result": "102 % of control"}, {"measurement": "Residual activity", "setting": "[6]; PLK3, 1.0E-07 M", "result": "109 % of control"}, {"measurement": "Residual activity", "setting": "[7]; CDK1/CycA2, 1.0E-06 M", "result": "77 % of control"}, {"measurement": "Residual activity", "setting": "[7]; CDK1/CycA2, 1.0E-07 M", "result": "91 % of control"}, {"measurement": "Residual activity", "setting": "[7]; CDK1/CycB1, 1.0E-06 M", "result": "79 % of control"}, {"measurement": "Residual activity", "setting": "[7]; CDK1/CycB1, 1.0E-07 M", "result": "84 % of control"}, {"measurement": "Residual activity", "setting": "[7]; CDK1/CycE1, 1.0E-06 M", "result": "101 % of control"}, {"measurement": "Residual activity", "setting": "[7]; CDK1/CycE1, 1.0E-07 M", "result": "116 % of control"}, {"measurement": "Residual activity", "setting": "[8]; EPHB1, 1.0E-06 M", "result": "87 % of control"}, {"measurement": "Residual activity", "setting": "[8]; EPHB1, 1.0E-07 M", "result": "103 % of control"}, {"measurement": "Residual activity", "setting": "[9]; NEK3, 1.0E-06 M", "result": "103 % of control"}, {"measurement": "Residual activity", "setting": "[9]; NEK3, 1.0E-07 M", "result": "110 % of control"}, {"measurement": "IC50", "setting": "[10]", "result": 960, "unit": "nM"}]}, {"smiles": "C#Cc1cc(Nc2ncnc3cc(OC)c(OC)cc23)ccc1Cl", "note": "[Compound 45]", "values": [{"measurement": "IC50", "setting": "U-CH2 chordoma cell line", "result": 35, "unit": "µM"}, {"measurement": "IC50", "setting": "[1]", "result": 1200, "unit": "nM"}, {"measurement": "Residual activity, ROS", "setting": "[2]; assay conc. 1.0E-06 M", "result": "89 % of control"}, {"measurement": "Residual activity, ROS", "setting": "[2]; assay conc. 1.0E-07 M", "result": "96 % of control"}, {"measurement": "Residual activity, TRK-A", "setting": "[3]; assay conc. 1.0E-06 M", "result": "87 % of control"}, {"measurement": "Residual activity, TRK-A", "setting": "[3]; assay conc. 1.0E-07 M", "result": "106 % of control"}, {"measurement": "Residual activity, TRK-C", "setting": "[4]; assay conc. 1.0E-06 M", "result": "113 % of control"}, {"measurement": "Residual activity, TRK-C", "setting": "[4]; assay conc. 1.0E-07 M", "result": "136 % of control"}, {"measurement": "Residual activity", "setting": "[5]; CDC7/DBF4, 1.0E-06 M", "result": "88 % of control"}, {"measurement": "Residual activity", "setting": "[5]; CDC7/DBF4, 1.0E-07 M", "result": "107 % of control"}, {"measurement": "Residual activity", "setting": "[6]; PLK3, 1.0E-06 M", "result": "98 % of control"}, {"measurement": "Residual activity", "setting": "[6]; PLK3, 1.0E-07 M", "result": "103 % of control"}, {"measurement": "Residual activity", "setting": "[7]; CDK1/CycA2, 1.0E-06 M", "result": "83 % of control"}, {"measurement": "Residual activity", "setting": "[7]; CDK1/CycA2, 1.0E-07 M", "result": "83 % of control"}, {"measurement": "Residual activity", "setting": "[7]; CDK1/CycB1, 1.0E-06 M", "result": "78 % of control"}, {"measurement": "Residual activity", "setting": "[7]; CDK1/CycB1, 1.0E-07 M", "result": "89 % of control"}, {"measurement": "Residual activity", "setting": "[7]; CDK1/CycE1, 1.0E-06 M", "result": "91 % of control"}, {"measurement": "Residual activity", "setting": "[7]; CDK1/CycE1, 1.0E-07 M", "result": "97 % of control"}, {"measurement": "Residual activity", "setting": "[8]; EPHB1, 1.0E-06 M", "result": "82 % of control"}, {"measurement": "Residual activity", "setting": "[8]; EPHB1, 1.0E-07 M", "result": "86 % of control"}, {"measurement": "Residual activity", "setting": "[9]; NEK3, 1.0E-06 M", "result": "113 % of control"}, {"measurement": "Residual activity", "setting": "[9]; NEK3, 1.0E-07 M", "result": "101 % of control"}, {"measurement": "IC50", "setting": "[10]", "result": 3000, "unit": "nM"}]}]}
